In paper PMC5109907, “Enhancing succinic acid biosynthesis in Escherichia coli by engineering its global transcription factor, catabolite repressor/activator (Cra)” (Scientific Reports, 2016):

Key:
[1] = target: T1, Cra (catabolite repressor/activator) (Escherichia coli, UniProt P0ACP1, R57K/A58T/G59N/R60Q/S75H/D148I/R149I, form not given); assay: isothermal titration calorimetry, one-site fit; format: binding; settings: 25 °C; 15 μM protein, 50 mM FBP injected; Tang1544 mutant
T1 construct: full-length, His6-tagged (tag encoded by the 3' primer, C-terminal), pET28a, expressed in E. coli BL21, Ni resin

[2] = target: T2, Cra (catabolite repressor/activator) (Escherichia coli, UniProt P0ACP1, R57K/A58G/G59Q/R60Q/S75H/D148I/R149I, form not given); assay: isothermal titration calorimetry, one-site fit; format: binding; settings: 25 °C; 15 μM protein, 50 mM FBP injected; Tang1541 mutant
T2 construct: full-length, His6-tagged (tag encoded by the 3' primer, C-terminal), pET28a, expressed in E. coli BL21, Ni resin

[3] = target: T3, Cra (catabolite repressor/activator) (Escherichia coli, UniProt P0ACP1); assay: isothermal titration calorimetry, one-site fit; format: binding; settings: 25 °C; 15 μM protein, 50 mM FBP injected
T3 construct: full-length, His6-tagged (tag encoded by the 3' primer, C-terminal), pET28a, expressed in E. coli BL21, Ni resin

Cra mutant (Tang1544) = Cra mutant (Tang1544) (Escherichia coli, UniProt P0ACP1 1-334, R57K;A58T;G59N;R60Q;S75H;D148I;R149I); assay: EMSA; no FBP; less free DNA than Tang1534; EMSA: 50 nM oligonucleotide mixture annealed in TE buffer, with or without 1 mM FBP, 15 min at 30 C, nondenaturing 10% polyacrylamide gel, ethidium bromide; binding salt and pH not stated; settings: protein: recombinant; tags: His6; chain copies: 2; label: none (ethidium bromide stain); blunt
Cra wild type = Cra wild type (Escherichia coli, UniProt P0ACP1 1-334); assay: EMSA; no FBP; EMSA: 50 nM oligonucleotide mixture annealed in TE buffer, with or without 1 mM FBP, 15 min at 30 C, nondenaturing 10% polyacrylamide gel, ethidium bromide; binding salt and pH not stated; settings: protein: recombinant; tags: His6; chain copies: 4; label: none (ethidium bromide stain); blunt

`O=P(O)(O)OC[C@H]1OC(O)(COP(=O)(O)O)[C@@H](O)[C@@H]1O` (some centres unmarked) [FBP, fructose-1,6-bisphosphate] was tested, and the Kd [1] was 95 ± 24 nM, the Kd [2] was 130 ± 37 nM and the Kd [3] was 1400 nM.

B1: aceBAK 18-bp Cra site (dsDNA)
DNA 1: TCGTTAAGCGATTCAGCA
DNA 2: TGCTGAATCGCTTAACGA
B1: binds (Cra mutant (Tang1544)); binds (Cra wild type).
